From patent US9939427B2, “Method for evaluating the scent performance of perfumes or perfume mixtures” (Symrise AG, priority 2013, dated 2018)
“Also recorded” adds a separate entry of the source. One block for each compound: values may come before it.

Experiments:
Format in all cases: cell-based
OR4K2 = biological target: T1, OR4K2 (Homo sapiens, UniProt Q8NGD2); assay: Ca-imaging of OR4K2-transfected HEK293 cells; set-up: key to OR4K2 responded to odorant: ▪: 18 olfactory receptors responded to 32 odorants in related with specific anosmia; settings: HEK293 cells, individual odorant 200 μM, significant response p<0.05
T1 construct: specific primers, which amplify the complete open reading frame; expressed in transfected cells; host or cells: HEK293
T1 sequence (Q8NGD2 1-314): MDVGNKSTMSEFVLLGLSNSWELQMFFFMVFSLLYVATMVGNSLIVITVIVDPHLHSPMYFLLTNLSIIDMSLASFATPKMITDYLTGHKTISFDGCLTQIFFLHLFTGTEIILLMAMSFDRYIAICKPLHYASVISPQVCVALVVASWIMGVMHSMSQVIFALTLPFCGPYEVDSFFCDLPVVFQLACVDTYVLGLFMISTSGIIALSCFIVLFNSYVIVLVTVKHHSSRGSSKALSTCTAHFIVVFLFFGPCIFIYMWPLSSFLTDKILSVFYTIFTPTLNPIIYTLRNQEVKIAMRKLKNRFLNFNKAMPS
Protocol: (§1) HEK293 cells were cultivated in Petri dishes (Ø35 mm) as previously described (Benbernou et al. 2007). We grow up HEK293 cells in culture medium containing standard DMEM with 10% heat-inactivated fetal bovine serum, 2 mM L-glutamine, 100 units/ml penicillin, and 100 units/ml streptomycin in a humidified atmosphere (37° C., 5% CO2). After 2-3 days, the transfection process was carried out, whereby the cell culture was 70-80% confluent. The calciumphosphate method was applied to transfect DNA plasmid transiently in HEK293 cells in case of Ca-imaging method.
(§2) Calcium cations and phosphate anions created crystal precipitations coupled with DNA which could invade into the cells through endocytosis. Cells were transiently transfected with plasmid DNA which consists of pCI expression vector and PCR-amplified full-length cDNA of olfactory receptors candidates, and also Gα15, RTP1, Myr-Ric8A, HSC70, and m-Cherry as cofactors. The precipitation could be created after 15-20 min, with dropping the transfection solution on HEK293 cells. Before measuring by Ca-imaging cells were incubated 48-60 hours at 370 C, 5% CO2. Cationic liposome-mediated transfection method was applied to transfect DNA plasmid transiently in HANA3A cells in case of CRE-Luciferase and CRE-SEAP assays.
(§3) Calcium imaging of the transfected HEK293 cells was done by using chambers determinate an inverted microscope (Olympus; IX70) using a 10× objective (CPIanFL N Olympus). Fluorescence emission was determined every 4 s by using a CCD camera (Charge Coupled Device, C9100 Hamamatsu). The capillary tube which was responsible to supply odorants was generated closely above the cells. The columns filled with odorants, DMSO and ATP. Odorants were manually monitored to drop each 4-5 s to transfected cells. Solutions with drop wise form spread on HEK293 cells in 35 mm dishes.
(§4) In experiments, Fura-2 Acetoxymethylester (Fura-2/AM) was applied. The non-polar Fura2/AM is fluorescent but not yet calcium-sensitive. Once diffuses into cell plasma, Fura-2/AM is hydrolyzed to Fura-2 which is calcium-sensitive and functions as Ca2+ chelator. Regardless of the presence of calcium, Fura-2 emits at the wavelength of 510 nm. Once Fura-2 binds to free intracellular Ca2+ in cell plasma, its ratio of excitation at wavelengths of 340 nm and 380 nm is changed and correlated to the amount of intracellular Ca2+. According to this feature, the analysis of 340/380 nm excitation ratio for Fura-2 allows to quantify intracellular calcium levels.
(§5) In preparation for Ca-imaging measurements, transfected HEK293 cells were added 3 it Fura2/AM (3 μM) and incubated 30-45 min at 370 C, 5% CO2. After this step, experiments were carried out in a dark condition (Fura-2 is light-sensitive). After the incubation, medium of cell culture was replaced with 2 ml Ringer's solution.
(§6) Odorants were freshly prepared with DMSO as 1 M stocks solutions. Six mixtures (200 μM each chemical) were applied to cells sequentially (20 s each mixture/30 s Ringer). Those ORs tested with single odorants that had generated a response to odorant mixture group previously. Odorants were prepared in 100-200 μM concentration.
(§7) Ringer's solution was used for washing cells between measuring by two different odorants. Positive response was determined by the timing of the response, the strength of the response (more than twofold higher than the noise amplitude of the baseline), and the shape of the response curve (sharp rise in curve with gradual recovery). […]

OR10A6 = biological target: T2, OR10A6 (Homo sapiens, UniProt Q8NH74); assay: Ca-imaging of OR10A6-transfected HEK293 cells; set-up: key to OR10A6 responded to odorant: ▪: 18 olfactory receptors responded to 32 odorants in related with specific anosmia; settings: for OR10A6 responded to odorant: HEK293 cells, individual odorant 200 μM, significant response p<0.05
T2 construct: specific primers, which amplify the complete open reading frame; expressed in transfected cells; host or cells: HEK293
T2 sequence (Q8NH74 1-314): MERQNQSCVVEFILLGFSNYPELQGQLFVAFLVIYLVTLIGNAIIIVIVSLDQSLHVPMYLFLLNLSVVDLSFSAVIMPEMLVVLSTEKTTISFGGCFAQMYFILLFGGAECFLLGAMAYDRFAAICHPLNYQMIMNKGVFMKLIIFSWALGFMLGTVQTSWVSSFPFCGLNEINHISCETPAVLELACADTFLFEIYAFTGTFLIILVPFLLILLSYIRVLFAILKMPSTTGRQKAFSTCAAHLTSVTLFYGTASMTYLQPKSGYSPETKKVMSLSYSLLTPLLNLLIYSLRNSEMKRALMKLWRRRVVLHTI
Protocol: as §1, §2, §3, §4, §5, §6, §7

[1] = tested on: HEK293 cells transfected with all cofactors and pCI plasmids without ORs; assay: Ca-imaging of control HEK293 cells without OR; settings: odorant 200 μM, three times of measuring (Table 4, FIG. 5)
Protocol: as §1, §2, §3, §4, §5, §6
(§8) Ringer's solution was used for washing cells between measuring by two different odorants. Positive response was determined by the timing of the response, the strength of the response (more than twofold higher than the noise amplitude of the baseline), and the shape of the response curve (sharp rise in curve with gradual recovery). The typical shape of response curves was established by observing responses to repeated stimulation with 200 μM of odorants. After testing with single odorants at 100 μM, stimulating odorants were often retested at 200 μM concentrations. To confirm the result of every receptor that produced a significant response curves, the experiment was repeated for twelve times. Finally, cells were exposed to ATP (0.25 mM) which could activate P2Y receptor channel and induce Ca2+ influx into cells. […]

OR8B4 = biological target: T3, OR8B4 (Homo sapiens, UniProt Q96RC9); assay: Ca-imaging of OR8B4-transfected HEK293 cells; settings: Ca-imaging, single odorants 200 μM
T3 construct: specific primers, which amplify the complete open reading frame; expressed in transfected cells; host or cells: HEK293
T3 sequence (Q96RC9 1-309): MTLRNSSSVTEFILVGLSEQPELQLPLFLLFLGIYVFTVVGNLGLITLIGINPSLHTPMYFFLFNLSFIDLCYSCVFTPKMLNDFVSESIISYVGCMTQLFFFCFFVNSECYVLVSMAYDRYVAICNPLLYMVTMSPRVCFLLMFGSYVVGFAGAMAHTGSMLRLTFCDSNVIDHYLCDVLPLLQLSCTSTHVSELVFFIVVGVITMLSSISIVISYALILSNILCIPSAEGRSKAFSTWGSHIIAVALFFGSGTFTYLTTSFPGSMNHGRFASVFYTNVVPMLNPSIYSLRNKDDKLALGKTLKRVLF
Protocol: as §1, §2, §3, §4, §5, §6, §8

OR8D2 = biological target: T4, OR8D2 (Homo sapiens, UniProt Q9GZM6); assay: Ca-imaging of OR8D2-transfected HEK293 cells; set-up: key to OR8D2 responded to odorant: ▪: 18 olfactory receptors responded to 32 odorants in related with specific anosmia; settings: for Number of cell responses, Experiment (OR8D2): odorant 200 μM, approximately 2000 transfected cells in three times of measuring (Table 4, FIG. 5)
T4 construct: specific primers, which amplify the complete open reading frame; expressed in transfected cells; host or cells: HEK293
T4 sequence (Q9GZM6 1-311): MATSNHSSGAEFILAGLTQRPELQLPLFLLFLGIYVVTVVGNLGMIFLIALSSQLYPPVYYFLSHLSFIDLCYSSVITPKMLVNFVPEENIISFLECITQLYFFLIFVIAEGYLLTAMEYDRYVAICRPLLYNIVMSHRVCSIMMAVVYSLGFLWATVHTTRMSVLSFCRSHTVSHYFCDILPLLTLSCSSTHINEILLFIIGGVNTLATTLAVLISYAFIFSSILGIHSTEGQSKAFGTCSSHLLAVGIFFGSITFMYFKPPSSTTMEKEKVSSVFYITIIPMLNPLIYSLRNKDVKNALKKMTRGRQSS
Protocol: as §1, §2, §3, §4, §5, §6, §8

OR2L8 = biological target: T5, OR2L8 (Homo sapiens, UniProt Q8NGY9); assay: Ca-imaging of OR2L8-transfected HEK293 cells; set-up: key to OR2L8 responded to odorant: ▪: 18 olfactory receptors responded to 32 odorants in related with specific anosmia
T5 construct: specific primers, which amplify the complete open reading frame; expressed in transfected cells; host or cells: HEK293
T5 sequence (Q8NGY9 1-312): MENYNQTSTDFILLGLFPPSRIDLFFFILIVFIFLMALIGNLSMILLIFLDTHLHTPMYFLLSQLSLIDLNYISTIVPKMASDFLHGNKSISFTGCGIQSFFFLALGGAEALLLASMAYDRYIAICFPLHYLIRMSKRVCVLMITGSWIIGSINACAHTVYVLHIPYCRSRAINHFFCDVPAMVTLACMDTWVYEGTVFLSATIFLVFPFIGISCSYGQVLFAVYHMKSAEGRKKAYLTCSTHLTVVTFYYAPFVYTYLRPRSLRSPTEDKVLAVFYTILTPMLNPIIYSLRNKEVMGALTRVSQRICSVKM
Protocol: as §1, §2, §3, §4, §5, §6, §8

OR1B1 = biological target: T6, OR1B1 (Homo sapiens, UniProt Q8NGR6); assay: Ca-imaging of OR1B1-transfected HEK293 cells; set-up: key to OR1B1 responded to odorant: ▪: 18 olfactory receptors responded to 32 odorants in related with specific anosmia; settings: Ca-imaging
T6 construct: specific primers, which amplify the complete open reading frame; expressed in transfected cells; host or cells: HEK293
T6 sequence (Q8NGR6 1-317): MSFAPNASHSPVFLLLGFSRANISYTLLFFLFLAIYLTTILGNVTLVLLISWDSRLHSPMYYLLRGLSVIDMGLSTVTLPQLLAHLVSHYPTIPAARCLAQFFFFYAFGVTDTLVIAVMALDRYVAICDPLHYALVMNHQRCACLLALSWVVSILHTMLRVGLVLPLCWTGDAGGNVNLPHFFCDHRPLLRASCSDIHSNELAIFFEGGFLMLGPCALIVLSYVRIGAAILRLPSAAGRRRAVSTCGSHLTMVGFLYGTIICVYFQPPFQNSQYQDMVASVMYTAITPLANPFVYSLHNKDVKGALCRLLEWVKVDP
Protocol: as §1, §2, §3, §4, §5, §6, §8

[2] = Ca-imaging, HEK293 cells, individual odorant 200 μM, significant response p<0.05
[3] = Ca-imaging, single odorants 200 μM

SMILES: O=Cc1ccccc1 [Banzaldehyde, Benzaldehyde]
- OR4K2 responded to odorant (OR4K2): ▪

SMILES: OC/C=C/c1ccccc1 [Cinamyl alcohol, Cinamylalcohol]
- OR10A6 responded to odorant (OR10A6): ▪

Now from value to compound, other results behind:

- Response of OR8B4 to odorant, in words (OR8B4): activated
- OR10A6 responded to odorant (OR10A6): ▪
- Response of OR10A6 to odorant, in words (OR10A6; single odorants 200 μM): detected
- OR8D2 responded to odorant (OR8D2; [2]): ▪
- Number of cell responses, Experiment (OR8D2) (OR8D2): 21
SMILES: CC(C)(CO)Cc1ccccc1 [Muguet alcohol, Muguetalcohol]
- Number of cell responses, Control [1]: 0
- Response of OR8D2 to odorant, in words (OR8D2; [3]): significantly activated; also recorded: detected

- Number of cell responses, Experiment (OR8D2) (OR8D2): 9
SMILES: CCCCCCCCO [Octanol]
- Number of cell responses, Control [1]: 0

- OR2L8 responded to odorant (OR2L8; [2]): ▪
- Response of OR2L8 to odorant, in words (OR2L8; [3]): Ca2+ concentration increased
- Number of cell responses, Experiment (OR2L8) (OR2L8; odorant 200 μM, approximately 2000 transfected cells in three times of measuring (Table 4, FIG. 5)): 10
SMILES: CCCC(O)CCC1C(C)CCCC1(C)C (stereo not drawn) [Timbrol, Timberol]
- Number of cell responses, Control [1]: 1

- OR1B1 responded to odorant (OR1B1; HEK293 cells, individual odorant 200 μM, significant response p<0.05): ▪
- Response of OR1B1 to odorant, in words (OR1B1; single odorants 200 μM): significantly (P<0.05) activated
SMILES: Cc1ccc2c(c1)OCC(=O)CO2 [calone, Calone]
- Number of cell responses, Control [1]: 0
